46 compounds from BindingDB's records for patent US20250313563 (The Broad Institute, 2025) can be followed below.

One may read the pIC50 as the IC50 on a negative log10 scale, so that one unit is a factor of ten.

pIC50: −log10 of the molar value. Where “and” joins values, the source holds several entries; their conditions need not be identical. Identical values can stand only once. Bounds are passed on as bounds.

The target of test [1] is Glycogen synthase kinase-3 beta (Homo sapiens, UniProt P49841). Description: TR-FRET Assay. Put shortly:
(§1)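 TR-FRET readout: streptavidin-d2 (40 nM in added detection mix) plus Tb-anti-pSer641 Ab (2 nM in mix). Steps were 30 min compound preincubation, kinase reaction, then EDTA stop.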
(In general: Time-resolved FRET reads energy transfer from a long-lived donor to a nearby acceptor.)

In test [2] the target is Glycogen synthase kinase-3 alpha (Homo sapiens, UniProt P49840). Description: TR-FRET Assay. In outline: as §1
Sequence of Glycogen synthase kinase-3 alpha (P49840 whole entry): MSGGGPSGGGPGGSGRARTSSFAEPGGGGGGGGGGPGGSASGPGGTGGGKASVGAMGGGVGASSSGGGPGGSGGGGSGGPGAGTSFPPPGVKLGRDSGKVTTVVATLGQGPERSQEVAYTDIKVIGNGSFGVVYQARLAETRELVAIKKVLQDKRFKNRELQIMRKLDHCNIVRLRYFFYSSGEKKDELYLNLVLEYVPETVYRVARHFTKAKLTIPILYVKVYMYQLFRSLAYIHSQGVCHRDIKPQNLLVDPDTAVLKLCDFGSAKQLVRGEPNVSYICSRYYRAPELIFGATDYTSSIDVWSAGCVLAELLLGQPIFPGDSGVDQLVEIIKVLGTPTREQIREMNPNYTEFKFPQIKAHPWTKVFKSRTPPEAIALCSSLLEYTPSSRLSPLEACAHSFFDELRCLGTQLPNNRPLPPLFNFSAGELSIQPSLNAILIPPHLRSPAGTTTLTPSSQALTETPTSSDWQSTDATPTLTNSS

Sequence of Glycogen synthase kinase-3 beta (P49841 whole entry): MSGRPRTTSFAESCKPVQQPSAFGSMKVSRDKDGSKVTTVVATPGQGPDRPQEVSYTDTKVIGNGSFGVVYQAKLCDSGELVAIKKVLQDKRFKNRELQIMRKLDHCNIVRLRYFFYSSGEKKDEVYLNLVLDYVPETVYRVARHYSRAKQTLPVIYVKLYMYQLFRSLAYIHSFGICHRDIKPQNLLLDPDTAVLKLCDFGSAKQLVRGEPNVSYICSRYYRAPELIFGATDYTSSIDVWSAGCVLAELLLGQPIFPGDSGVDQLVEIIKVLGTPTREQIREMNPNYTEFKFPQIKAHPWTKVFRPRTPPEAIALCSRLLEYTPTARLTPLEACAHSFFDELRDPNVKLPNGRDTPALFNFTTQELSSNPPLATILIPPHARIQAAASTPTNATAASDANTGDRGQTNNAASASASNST

As for `CC[C@@]1(c2cccc(-c3cc[n+](O)cc3[S@@+](C)[O-])c2)C2=CN=NC2NC2=C1C(=O)CC(C)(C)C2` (some centres not stated) [US20250313563, Compound 947571], the pIC50 is 5.30 to 6.00 in test [1] and 6.00 to 7.00 in test [2].
The like results for `CCC1(c2cccc(C(F)F)c2)C2=C(CC(C)(C)NC2=O)NC2N=NC(C(F)(F)F)=C21` (configuration not stated) [US20250313563, Compound 948305] were, in that order, more than 7.00 and more than 7.00.
The like results for `CC[C@]1(c2cccc(-c3cnn(C)c3C)c2)C2=CN=NC2NC2=C1C(=O)NC(C)(C)C2` (some centres not stated) [US20250313563, Compound 945617] were, in that order, less than 5.30 and 5.30 to 6.00.
In the case of `CCC1(c2cccc(-c3cnn(C)c3)c2)C2=C(CC(C)(C)NC2=O)NC2N=NC(C(F)F)=C21` (configuration not stated) [US20250313563, Compound 949171], the pIC50 was > 7.00 and 5.30 to 6.00 in test [1]; more than 7.00 in test [2].
As for `CC1N=NC2=C1C1(CN(S(=O)(=O)CC3CC3)C1)C1=C(CC(C)(C)CC1=O)N2` (configuration not stated) [US20250313563, Compound 107828], the results for the pIC50 in test [1] and in test [2] were 6.00 to 7.00 and more than 7.00, respectively.
For `CC[C@@]1(c2cccc(-c3cnn4c3OCCC4)c2)C2=CN=NC2NC2=C1C(=O)NC(C)(C)C2` (some centres not stated) [US20250313563, Compound 952019], the pIC50 in test [1] is 6.00 to 7.00; in test [2], more than 7.00.
Consider `CC1(C)CC(=O)C2=C(C1)NC1=C(CN=N1)C21CCN(S(=O)(=O)c2cnn(C(C)(C)C)c2)CC1` [US20250313563, Compound 945677], for which the pIC50 in test [1] is 6.00 to 7.00; in test [2], more than 7.00.
`CCC1(c2cccc(-c3ccncc3C)c2)C2=C(CC(C)(C)CC2=O)NC2N=NC(C(F)(F)F)=C21` (configuration not stated) [US20250313563, Compound 945527]: the negative logarithm of the IC50 (pIC50) in test [1] is > 7.00 and 6.00 to 7.00; in test [2], more than 7.00.
Turning to `CC[C@]1(c2cccc(S(C)(=O)=O)c2)C2=C(CC(C)(C)NC2=O)NC2N=NC(C(F)(F)F)=C21` (some centres not stated) [US20250313563, Compound 948418], the pIC50 in test [1] and in test [2] was more than 7.00 each time.
Consider `CCC1(c2cccc(-c3cnn4c3CCC4)c2)C2=CN=NC2NC2=C1C(=O)CC(C)(C)C2` (configuration not stated) [US20250313563, Compound 947494], for which the pIC50 in test [1] is 6.00 to 7.00; in test [2], more than 7.00.
The like results for `CC1(C)CC(=O)C2=C(C1)NC1=C(CN=N1)C21CN(S(=O)(=O)c2ccccc2)C1` [US20250313563, Compound 901474] were, in that order, more than 7.00 and more than 7.00.
For `CCC1(c2cccc(-c3cnn4c3CCCC4)c2)C2=CN=NC2NC2=C1C(=O)NC(C)(C)C2` (configuration not stated) [US20250313563, Compound 945603] the same measures were 6.00 to 7.00 and more than 7.00.
Turning to `CC[C@]1(c2cccc(C(C)C)c2)C2=CN=NC2NC2=C1C(=O)CC(C)(C)C2` (some centres not stated) [US20250313563, Compound 810373], the pIC50 is > 7.00 and 5.30 to 6.00 in test [1]; > 7.00 and 6.00 to 7.00 in test [2].
Regarding `CC1(C)CC(=O)C2=C(C1)NC1N=NC(CCC(F)(F)F)=C1C21CCc2c(F)cccc21` (configuration not stated) [US20250313563, Compound 841868], the pIC50 in test [1] and in test [2] was 6.00 to 7.00 each time.
On to `CC[C@@]1(c2cccc(C(F)(F)F)c2)C2=CN=NC2NC2=C1C(=O)N(c1cccc(C)c1)CC2` (some centres not stated) [US20250313563, Compound 949041], for which the pIC50 in test [1] was less than 5.30; in test [2], 5.30 to 6.00.
In the case of `CCC1(c2cccc(N(C)c3ccncc3)c2)C2=CN=NC2NC2=C1C(=O)CC(C)(C)C2` (configuration not stated) [US20250313563, Compound 853910], the pIC50 is 5.30 to 6.00 in test [1] and 6.00 to 7.00 in test [2].
The like results for `CC[C@]1(c2ccc(C)cc2)C2=CN=NC2NC2=C1C(=O)CC(C)(C)C2` (some centres not stated) [US20250313563, Compound 789457] were, in that order, 5.30 to 6.00 and 6.00 to 7.00.
For the compound `CC(=O)N1CC2(C1)C[C@]1(CO2)C2=C(N=NC2)NC2=C1C(=O)CC(C)(C)C2` [US20250313563, Compound 926872], the pIC50 in test [1] and in test [2] was 6.00 to 7.00 throughout.
As to `CN(C)C(=O)c1cccc(S(=O)(=O)N2CCC3(CC2)C2=C(N=NC2)NC2=C3C(=O)CC(C)(C)C2)c1` [US20250313563, Compound 947247], the pIC50 in test [1] and in test [2] was more than 7.00 in each case.
Consider `CC[C@@]1(c2cccc(C(F)(F)F)c2)C2=CN=NC2NC2=C1C(=O)N(C)CC2` (some centres not stated) [US20250313563, Compound 917283], for which the pIC50 in test [1] and in test [2] was less than 5.30 throughout.
`CC[C@]1(c2cccc(-c3ccnn3C)c2)C2=CN=NC2NC2=C1C(=O)CC(C)(C)[C@@H]2F` (some centres not stated) [US20250313563, Compound 957506]: the pIC50 in test [1] is 6.00 to 7.00 and < 5.30; in test [2] it was > 7.00 and 6.00 to 7.00.
With `CC[C@]1(c2cccc(N(C)c3cccc(OC)n3)c2)C2=CN=NC2NC2=C1C(=O)CC(C)(C)C2` (some centres not stated) [US20250313563, Compound 932646], the pIC50 in test [1] and in test [2] was less than 5.30 in each case.
Consider `CC[C@@]1(c2cccc(-c3cn(C)nc3C(C)C)c2)C2=CN=NC2NC2=C1C(=O)NC(C)(C)C2` (some centres not stated) [US20250313563, Compound 949111], for which the pIC50 in test [1] is 5.30 to 6.00; in test [2] it was 6.00 to 7.00.
In the case of `CC1(C)CC(=O)C2=C(C1)NC1=C(CN=N1)C21CCN(S(=O)(=O)CC2CC2)CC1` [US20250313563, Compound 909207], the pIC50 in test [1] was > 7.00 and 6.00 to 7.00; in test [2], more than 7.00.
In the case of `CC[C@]1(c2ccccc2)C2=CN=NC2NC2=C1C(=O)[C@@H](C)C[C@H]2C` (some centres not stated) [US20250313563, Compound 909219], the pIC50 in test [1] and in test [2] was less than 5.30 in each case.
On to `CC1(C)CC(=O)C2=C(C1)NC1=C(CN=N1)C21CCc2c(Cl)cccc21` (configuration not stated) [US20250313563, Compound 816795], for which the pIC50 in test [1] was 6.00 to 7.00; in test [2] it was more than 7.00.
On to `CC[C@]1(c2cccc(-c3ccnc(C)c3OC)c2)C2=CN=NC2NC2=C1C(=O)CC(C)(C)C2` (some centres not stated) [US20250313563, Compound 946002], for which the pIC50 in test [1] and in test [2] was less than 5.30 throughout.
With `CC[C@@]1(c2cccc(C(F)(F)F)c2)C2=CN=NC2NC2=C1C(=O)NC1(CCC1)C2` (some centres not stated) [US20250313563, Compound 914344], the pIC50 is less than 5.30 in test [1] and 6.00 to 7.00 in test [2].
For `CCC1(c2cccc(N3CCOCC3)c2)C2=C(CC(C)(C)CC2=O)NC2N=NC(C)=C21` (configuration not stated) [US20250313563, Compound 874312] the same measures were more than 7.00 and more than 7.00.
For `CCC1(c2cccc(N(C)c3ccnc(F)c3)c2)C2=CN=NC2NC2=C1C(=O)CC(C)(C)C2` (configuration not stated) [US20250313563, Compound 917146] the same measures were more than 7.00 and more than 7.00.
As to `CCC1(c2cccc(N(C)C(=O)c3ccn(C)n3)c2)C2=CN=NC2NC2=C1C(=O)CC(C)(C)C2` (configuration not stated) [US20250313563, Compound 917130], the pIC50 in test [1] was 6.00 to 7.00; in test [2] it was more than 7.00.
For `CCC1(c2cccc(-c3ccnc(C(C)C)c3)c2)C2=CN=NC2NC2=C1C(=O)CC(C)(C)C2` (configuration not stated) [US20250313563, Compound 930569] the same measures were 5.30 to 6.00 and 6.00 to 7.00.
As to `Cc1cc(S(=O)(=O)N2CCC3(CC2)C2=C(N=NC2)NC2=C3C(=O)CC(C)(C)C2)c(C)s1` [US20250313563, Compound 945674], the pIC50 is 6.00 to 7.00 in test [1] and more than 7.00 in test [2].
In the case of `CC1(C)CC(=O)C2=C(C1)NC1=C(CN=N1)C21CCN(S(=O)(=O)C2CCCC2)CC1` [US20250313563, Compound 909206], the pIC50 is > 7.00 and 6.00 to 7.00 in test [1]; more than 7.00 in test [2].
On to `CC[C@]1(c2cccc(-c3cnn(C(C)(C)C)c3)c2)C2=CN=NC2NC2=C1C(=O)NC(C)(C)C2` (some centres not stated) [US20250313563, Compound 949107], for which the pIC50 in test [1] and in test [2] was less than 5.30 each time.
In the case of `CC1(C)CC(=O)C2=C(C1)NC1=C(CN=N1)C21CCN(S(=O)(=O)c2ccc(C(F)(F)F)cc2)CC1` [US20250313563, Compound 947256], the pIC50 in test [1] and in test [2] was more than 7.00 each time.
As to `CCN(c1cccnc1)c1cccc(C2(CC)C3=CN=NC3NC3=C2C(=O)CC(C)(C)C3)c1` (configuration not stated) [US20250313563, Compound 885331], the pIC50 in test [1] and in test [2] was more than 7.00 throughout.
Consider `CC1(C)CC(=O)C2=C(C1)NC1=C(CN=N1)C21CCN(S(=O)(=O)c2cc(F)ccc2F)CC1` [US20250313563, Compound 948121], for which the pIC50 in test [1] is > 7.00 and 6.00 to 7.00; in test [2], > 7.00 and 6.00 to 7.00.
Turning to `CCC1(c2cccc(-c3cccnc3)c2)C2=CN=NC2NC2=C1C(=O)CC(C)(C)C2` (configuration not stated) [US20250313563, Compound 791272], the pIC50 was 6.00 to 7.00 in test [1] and more than 7.00 in test [2].
The like results for `CCC1(c2cccc(-c3ccnc(C(F)(F)F)c3)c2)C2=CN=NC2NC2=C1C(=O)CC(C)(C)C2` (configuration not stated) [US20250313563, Compound 913348] were, in that order, 6.00 to 7.00 and more than 7.00.
The like results for `CC(=O)N1CCC2(C1)C1=CN=NC1NC1=C2C(=O)CC(C)(C)C1` (configuration not stated) [US20250313563, Compound 826763] were, in that order, 5.30 to 6.00 and 6.00 to 7.00.
As to `CCC1(c2cccc(-c3cnn(C)c3)c2)C2=C(CC(C)(C)CC2=O)NC2N=NC(C(F)(F)F)=C21` (configuration not stated) [US20250313563, Compound 801445], the pIC50 in test [1] and in test [2] was more than 7.00 throughout.
As for `CC[C@@]1(c2cccc(-c3cc(C)ncc3C)c2)C2=CN=NC2NC2=C1C(=O)CC(C)(C)C2` (some centres not stated) [US20250313563, Compound 943515], the figures for the pIC50 in test [1] and in test [2] were less than 5.30 and 5.30 to 6.00, respectively.
`Cn1nccc1S(=O)(=O)N1CC2(C1)C1=C(N=NC1)NC1=C2C(=O)CC(C)(C)C1` [US20250313563, Compound 932648]: the pIC50 in test [1] and in test [2] was more than 7.00 throughout.
Regarding `CCC1(c2cccc(-c3cn(C)nc3C)c2)C2=CN=NC2NC2=C1C(=O)N(C)C(C)(C)C2` (configuration not stated) [US20250313563, Compound 948304], the pIC50 in test [1] and in test [2] was more than 7.00 in each case.
Regarding `CC[C@]1(c2cccc(-c3ccncc3)c2)C2=CN=NC2NC2=C1C(=O)C[C@@H](C)C2` (some centres not stated) [US20250313563, Compound 874317], the pIC50 in test [1] and in test [2] was more than 7.00 in each case.
